According to patent publication US20140378408A1, “NUCLEOSIDE 5'-PHOSPHOROTHIOATE ANALOGUES AND USES THEREOF” (BAR-ILAN UNIVERSITY, an Israeli University, priority 2012, published 2014):
“Also recorded” adds a separate entry of the source. Like-named read-outs stand apart in the source and are kept apart here.

What was measured:
[1] = Affinity to Zn^2+ ions (log K); assay type: physicochemical
human chondrocyte cells = test: NTMP hydrolysis in human chondrocyte cells; assay type: cell-based; conditions: 0.1 mM, NTMP 0.1 mM, OD 405 nm
Experimental: (§1) Increased chondrocyte PPi production, and PPi-generating NPP1 activity are linked with CPPD crystal deposition disease, common in aging and osteoarthritic cartilage. […] Its hydrolysis by endogenous enzyme (NPP1) from matrix vesicles (MVs), human chondrocytes or cartilage pieces results in elevated OD at 405 nm.
In order to test the ability of the NPP1 inhibitor to inhibit NTMP hydrolysis in human chondrocyte cells, human chondrocytes 1.5×10^4 per well were seeded in 96 well plate in 100 μl DMEM/10% fetal calf serum (FCS). One day before the experiment, the medium was changed to DMEM only (w/o phenol red). Human chondrocytes were incubated with 0.1 mM NTMP in TES, pH 7.37, in the presence or absence of 0.1 mM of the NPP1 inhibitor for 0, 15′, 30′, 1, 2, 4, 6, 18 hours at 37° C. At each time point the reaction was read at 405 nm.

matrix vesicles (MVs) = test: CPPD formation in MVs by FTIR analysis; parameters: species or system human; conditions: MV+ATP+analogue
cartilage pieces = test: NTMP hydrolysis in cartilage pieces; parameters: species or system human; conditions: 0.1 mM, NTMP 0.1 mM, OD 405 nm
Excerpt: as §1
In order to test the ability of the NPP1 inhibitor to inhibit NTMP hydrolysis in cartilage pieces, 12 pieces of cartilage of a uniform diameter were weighed and placed in wells of a 96-well plate overnight in DMEM w/o phenol red with penicillin-streptomycin-glutamine (PSG). The pieces of cartilage were incubated with 0.1 mM NTMP in TES, pH 7.37, in the presence or absence of 0.1 mM of the NPP1 inhibitor for 0, 15′, 30′, 1, 2, 4, 6, 8 hours at 37° C. At each time point 200 μl were removed from each well and the reaction was read at 405 nm.

[2] = target: T1, NPP1 from matrix vesicles (MVs) (Homo sapiens, UniProt P22413); test: NTMP hydrolysis in matrix vesicles; assay type: biochemical; conditions: 0.1 mM, NTMP 0.1 mM, OD 405 nm
T1 construct: Its hydrolysis by endogenous enzyme (NPP1) from matrix vesicles (MVs); from tissue; host or cells: matrix vesicles (MVs)
T1 sequence (P22413 whole entry): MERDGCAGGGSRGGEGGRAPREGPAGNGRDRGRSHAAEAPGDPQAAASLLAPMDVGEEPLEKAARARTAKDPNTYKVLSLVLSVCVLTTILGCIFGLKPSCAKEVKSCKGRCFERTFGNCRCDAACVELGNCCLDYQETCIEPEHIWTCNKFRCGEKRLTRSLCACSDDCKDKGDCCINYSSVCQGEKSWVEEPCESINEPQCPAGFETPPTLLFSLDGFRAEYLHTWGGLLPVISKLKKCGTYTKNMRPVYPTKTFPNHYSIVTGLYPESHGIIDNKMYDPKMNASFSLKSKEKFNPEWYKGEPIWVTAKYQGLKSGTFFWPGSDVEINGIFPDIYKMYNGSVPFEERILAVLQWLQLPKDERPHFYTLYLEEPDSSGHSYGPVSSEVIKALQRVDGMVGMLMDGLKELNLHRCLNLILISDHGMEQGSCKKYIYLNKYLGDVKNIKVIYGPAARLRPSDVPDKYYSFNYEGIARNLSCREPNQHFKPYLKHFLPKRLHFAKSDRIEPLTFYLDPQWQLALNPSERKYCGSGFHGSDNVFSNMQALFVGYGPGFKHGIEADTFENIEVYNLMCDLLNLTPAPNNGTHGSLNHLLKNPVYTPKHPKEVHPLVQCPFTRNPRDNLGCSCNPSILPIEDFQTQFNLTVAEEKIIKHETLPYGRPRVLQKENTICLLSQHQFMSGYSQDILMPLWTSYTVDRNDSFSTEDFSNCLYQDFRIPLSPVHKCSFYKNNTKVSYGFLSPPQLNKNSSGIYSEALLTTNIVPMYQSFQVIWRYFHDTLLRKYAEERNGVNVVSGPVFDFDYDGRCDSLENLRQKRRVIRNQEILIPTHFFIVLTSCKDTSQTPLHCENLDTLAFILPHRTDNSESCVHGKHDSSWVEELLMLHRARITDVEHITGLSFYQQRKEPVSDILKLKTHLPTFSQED
Experimental: as §1
In order to test the ability of the NPP1 inhibitor APPCCl2P-α-S (isomer A) to inhibit NTMP hydrolysis in MVs, MVs at 2.6 mg/ml (final concentration) were incubated with 0.1 mM NTMP in 2-[(2-Hydroxy-1,1-bis(hydroxymethyl)ethyl)amino]ethanesulfonic acid (TES; Sigma catalog number T1375), pH 7.37, in the presence or absence of 0.1 mM of said NPP1 inhibitor for 0, 15′, 30′, 1, 2, 4, 8 hours at 37° C. At each time point the reaction was read at 405 nm.

PC12 cells = test: Stability of nucleotides in PC12 cells
Aβ28-Cu^+ complex = target: T2, Aβ28-Cu^+ complex (Homo sapiens, UniProt P05067); test: Titration of Aβ28-Cu^+ complex by chelators monitored by 1H-NMR; conditions: 0.8 mM Aβ28-Cu^+, pD 7
T2 construct: we first studied Aβ28, as a more soluble fragment of Aβ40; purchased Sigma-Aldrich
T2 sequence (P05067 672-699 limits assumed, one chain of several): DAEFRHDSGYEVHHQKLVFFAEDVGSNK

[3] = Pharmacokinetics and BBB permeation after IV injection in mice; assay type: in vivo, F1 (C57B×S29) mice
Experimental: As shown in Example 14, APCPP-γ-S is stable in human blood serum as well as in brain, liver and blood from mice. In this study, we evaluated APCPP-γ-S blood-brain barrier (BBB) permeability and pharmacokinetics in F1 (C57B×S29) mice. APCPP-γ-S was injected intravenously (IV) at 40 mg/Kg into four mice (each mouse was injected with 1.5 mg of APCPP-γ-S). The mice were sacrificed after 30 minutes (2 of the 4) or 90 minutes (thr other 2 of the 4), and samples from brain and blood were taken to analysis. Each sample was collected into 0.5 ml saline, sonicated and extracted with chloroform, applied onto an anion exchange cartridge, and freeze-dried. The resulting residue was analyzed by HPLC. We detected the presence of 67.5 and 64% of the injected amount of APCPP-γ-S in the blood samples after 30 and 90 minutes, respectively. In the brain sample we obtained ca. 2% permeability (data not shown).

primary neurons = test: Protection of primary neuron culture against Aβ42 insult (trypan blue count); assay type: cell-based; conditions: Primary neuron
Experimental: Primary neuron cells were cultured in 96 wells plate (95×10^4 per well). After 24 h the cells were treated with 50 μM Aβ42 and various concentrations of APCPP-γ-S (0.04-25 μM) for 48 h. Cell viability was measured by dyeing the cells with trypan blue and counts of the vital cells. The results shown are the mean±S.D of three independent experiments in triplicate (*P<0.05, vs. Aβ42 treatment).
Primary neurons cells were cultured in 96 wells plate (95×10^4 per well). […] Cell viability was measured by dyeing the cells with trypan blue and counts the vital cells. The results shown are the mean±S.D of three independent experiments in triplicate (*P<0.05, **P<0.01 vs. Aβ42 treatment).
In this study, the neuroprotective activity of APCPP-γ-S in neuronal cells exposed to toxic Aβ42 was evaluated. At first we measured the number of the viable neuronal cells after treatment with Aβ42 (5-50 μM) (FIG. 11). At 50 μM Aβ42, 50% of the neuronal culture remained vital. Next, we measured the protective effect of APCPP-γ-S: primary neurons were treated with APCPP-γ-S (0.04-25 μM) and 50 μM Aβ42 for 48 h.

[4] = Metabolic stability in mouse brain, liver and blood homogenates (HPLC); assay type: in vitro ADME, mice; conditions: 37° C., up to 180 min
Experimental: In order to use APCPP-γ-S as a neuroprotectant agent and test its activity in an animal model, we first evaluated the metabolic stability of APCPP-γ-S in several tissues such as liver, brain and blood. In this assay we took samples from mice brain, liver and blood. The tissue samples were homogenated by sonication and split to 0.5 ml aliquots. Each sample was mixed with 0.1 mg of APCPP-γ-S and incubated at 37° C. for 10, 30, 90 and 180 min. After incubation, the samples were collected and extracted with chloroform at 1:1 v/v ratio. The aqueous layer was removed and freeze-dried. Samples were loaded onto an activated Starta X-AW weak anion exchange cartridge, washed with H2O (1 ml) and eluted with MeOH:H2O (1:1, 1 ml) followed by NH4OH:MeOH:H2O (2:25:73, 1 ml), and then freeze-dried. The resulting residue was analyzed by HPLC. […] Each analysis cycle was set to 30 minutes. The chromatographic flow was monitored at 260 nm and integrated using EZChrom Elite Software.

[5] = Stability in human blood serum; assay type: in vitro ADME

For `Nc1ncnc2c1ncn2[C@@H]1O[C@H](COP(O)(=S)OP(=O)(O)C(Cl)(Cl)P(=O)(O)O)[C@@H](O)[C@H]1O` (single isomer, unassigned) [APPCCl2P-α-S, adenosine 5′-[Pα-thio]-β,γ-(dichloromethylene)triphosphate], the “log K (Zn^2+)” value [1] was 6.5 and the “times higher affinity to Zn^2+ ions as compared to ATP” value [1] was 50.
With `Nc1ncnc2c1ncn2[C@@H]1O[C@H](COP(O)(=S)OP(=O)(O)C(Cl)(Cl)P(=O)(O)O)[C@@H](O)[C@H]1O` (single isomer, unassigned; isomer a) [APPCCl2P-α-S (isomer A), adenosine 5′-[Pα-thio]-β,γ-(dichloromethylene)triphosphate] the “inhibition of NTMP hydrolysis in human chondrocyte cells” value (human chondrocyte cells) was “inhibit the hydrolysis of NTMP”, the “CPPD production in MVs (FTIR bands 920 and 1125 cm^−1)” value (matrix vesicles (MVs)) was “a decrease in production of CPPD” and the “inhibition of NTMP hydrolysis in cartilage pieces” value (cartilage pieces) was “inhibit the hydrolysis of NTMP”. For the same compound, the “inhibition of NTMP hydrolysis in MVs” value [2] was “inhibit the hydrolysis of NTMP”.
In the case of `Nc1ncnc2c1ncn2[C@@H]1O[C@H](COP(=O)(O)OP(O)(O)=S)[C@@H](O)[C@H]1O` [ADP-β-S, adenosine 5′-[β-thio]diphosphate, reference compound], the “fold more stable in PC12 cells than parent nucleotide (GDP, ADP)” value (PC12 cells) is reported as 3 fold and the “equivalents at which the spectrum resembled that of pure Aβ28” value (Aβ28-Cu^+ complex) is reported as 5 eq.
With `Nc1ncnc2c1ncn2[C@@H]1O[C@H](COP(=O)(O)CP(=O)(O)OP(O)(O)=S)[C@@H](O)[C@H]1O` [APCPP-γ-S, adenosine 5′-[Pγ-thio]-α,β-methylenetriphosphate] the “injected amount present in blood” value ([3]; IV 40 mg/Kg, after 30 minutes) was 67.5%, the permeability into brain ([3]; IV 40 mg/Kg, brain sample) was “ca. 2%” and the “injected amount present in blood” value ([3]; IV, after 90 minutes) was 64%. For the same compound, the IC50 (primary neurons; 48 h, read-out: concentration that maintained 50% of neuronal cells) was 200 nM, the IC50 (primary neurons; read-out: IC50 protection from Aβ42 insult) was 200 nM and the “metabolic stability in brain, liver and blood” value [4] was “no significant degradation after 3 h; also recorded: could be detected even after 180 min”. The “stability in human blood serum” value [5] was “stable”.
